# From PubChem BioAssay AID652047 (Broad Institute, 2013)
# Activity calls are given as the source filed them.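 Rule for the calls: active = fitted curve reaches activity change of -35% signal drop at a concentration below twice the top valid tested dose; inactive = the rest, including activity in the opposite direction.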
# Assay: antimalarial activity against intraerythrocytic 3D7 parasites – 3D7 strain, red blood cells, SYBR Green, cherry-picked, dose response (AID 652047);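 note: 0% = untreated neutral control wells and -100% = mefloquine positive control wells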
# Conditions: P. falciparum 3D7 in RBCs, SYBR Green DNA fluorescence
SMILES,"activity change, negative = inhibition (at 50 µM (top of the series))","activity change, negative = inhibition (at 16 µM (top of the series))"
CCCn1c(=O)c(C(=O)NCc2ccc(OC)c(OC)c2)c(O)c2ccccc21,-23.6% (inactive),–
O/N=C/c1cc(Br)ccc1OCc1ccccc1F,–,13.1% (inactive)
CC1(C)CC(=O)C(N=Nc2ccc3ncsc3c2)=C(O)C1,-15.1% (inactive),–
CC(C)NC(=O)NC(=O)COC(=O)c1ccc([N+](=O)[O-])cc1Cl,16.4% (inactive),–
CCCSC(=S)c1c(C)[nH]n(-c2ccccc2)c1=O,-28.2% (inactive),–
c1ccc(Cn2cc(-c3cccnc3)cn2)cc1,-24.2% (inactive),–
Cc1cc(Nc2ccccc2)nn1C(=O)c1ccccc1,-5.49% (inactive),–
O=C(O)CSc1nc(-c2ccc(Cl)cc2)nc2c1oc1ccccc12,-31.1% (inactive),–
Cc1cccc(C)c1N1C(=O)C2ON(c3ccccc3)C(c3ccncc3)C2C1=O (stereo not given),-3.22% (inactive),–
c1ccc(-c2ccc(OCCCn3cncn3)cc2)cc1,6.71% (inactive),–
CCc1ccc(S(=O)(=O)N(C(=O)c2ccncc2)c2ccc(OC(=O)c3ccncc3)cc2)cc1,-20% (inactive),–
CCOC(=O)c1ccc(N2C(=O)CC(N3CCC(O)(c4ccc(Cl)cc4)CC3)C2=O)cc1 (stereo not given),7.67% (inactive),–
Cc1ccc(C(=O)C(SC(C)(C)C)n2cncn2)cc1 (stereo not given),-13% (inactive),–
O=C(c1ccccc1)c1ccc(Cn2cc(-c3ccccc3)nn2)cc1,-9.93% (inactive),–
COc1ccc(N(C(=O)c2ccncc2)S(=O)(=O)c2ccccc2)cc1,-18.5% (inactive),–
COC(OC)c1ccc(C#N)c(SCc2ccccc2)n1,-2.94% (inactive),–
COc1ccc(N(C)S(=O)(=O)c2ccc(Cl)c(C(=O)NNC(=O)c3ccccc3O)c2)cc1,-2.22% (inactive),–
CNc1cc(CSC)nc(SCc2ccc(Cl)cc2Cl)n1,14.7% (inactive),–
CCCOc1ccc2ccccc2c1/C=C1\SC(=O)NC1=O,-22.2% (inactive),–
CC1CCN(c2ccc3c(c2)S(=O)(=O)c2ccccc2C3=O)CC1,-3.18% (inactive),–

SMILES,"activity change, negative = inhibition (at 50 µM (top of the series))","activity change, negative = inhibition (at 16 µM (top of the series))"
CC1=NN(C(N)=S)C(=O)C1N=Nc1cccc(Cl)c1C (stereo not given),-20.7% (inactive),–
COc1ccccc1C1CCN(C(=O)c2ccc(Cl)cc2)CC1,-15.2% (inactive),–
FC(F)(F)c1nc(SCc2ccc(Cl)cc2Cl)n[nH]1,8.98% (inactive),–
O=C(c1ccc(Cl)cc1)N1CCN(c2ccc(F)cc2)CC1,-26.4% (inactive),–
O=C(O)c1c(NC(=O)N2CCCC2)sc2c1CCCC2,-4.69% (inactive),–
O/N=C/c1ccccc1OCc1ccc(Cl)cc1,-27.3% (inactive),–
CCCC1CCC(c2ccc(/C(N)=N/O)cc2)CC1 (stereo not given),-10.1% (inactive),–
Oc1c(Br)cc(-c2ccccc2)cc1Br,-1.67% (inactive),–
COc1cccc(C(C)=C2SC(=S)NC2=O)c1,-18.5% (inactive),–
O=c1c(CO)cc(CO)cc(CO)c1O,-103% (inactive),–
CCCCc1ccc(-n2c(Cc3cccs3)n[nH]c2=S)cc1,-28% (inactive),–
COc1cc2c(c(OC)c1OC)-c1ccc(O)c(=O)cc1[C@@H](NC(C)=O)CC2,-10.9% (inactive),–
O=C1N(c2ccc(Cl)cc2)C(c2cccnc2)N2CCCN12 (stereo not given),-3.96% (inactive),–
Nc1nc2sc3c(c2c(=O)s1)CCCC3,-14.6% (inactive),–
CC1Oc2ccccc2C=C1/C=N/Nc1ccc(C(=O)O)cc1 (stereo not given),–,17% (inactive)
CCCCn1c(=O)c(C(=O)NCc2ccncc2)c(O)c2ccccc21,2.98% (inactive),–
CCn1c(CNc2ccc(Cl)cc2)nnc1SCc1ccc(Cl)cc1,-49.2% (inactive),–
COc1ccc(N(C(=O)c2ccncc2)S(=O)(=O)c2ccc(F)cc2)cc1,38.9% (inactive),–
Cc1nc2ccc(C(=O)NCc3ccc4c(c3)OCO4)cc2s1,1.05% (inactive),–
COC(=O)C1=NN(C(=O)c2cccc(Br)c2)C(O)(c2ccc(Cl)cc2)C1 (stereo not given),-78.6% (inactive),–
